The source made the active and inactive calls.
Columns and labels:
[1] = microbe, parasite or virus in culture; type: functional; conditions: Mycobacterium tuberculosis
[2] = cells; type: functional
[3] = test system: Streptococcus; experiment: Group A Streptococcus viability loss, dose response, counter-screen for streptokinase expression inhibitor project, luminescence, BacTiterGlo (AID 1915); type: functional, organism-based;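 further: potency for reduction of bacterial viability or growth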
[4] = test system: Streptococcus sp. 'group A'; experiment: growth inhibition of control SK(-) GAS strain, dose response, counter-screen for streptokinase expression inhibitor project, luminescence, kanamycin, BacTiterGlo, confirmation (AID 1900); type: functional, organism-based; conditions: read-out: EC50
[5] = cells; type: functional, cell-based
[6] = cells; type: functional, cell-based; remark: listed apart in the source
[7] = biological target: Cytochrome P450 2D6 (Homo sapiens, UniProt P10635);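 further: CYP2D6 member of a cytochrome P450 panel assay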
[8] = biological target: T1, Corticotropin-releasing factor receptor 2/Corticotropin-releasing factor-binding protein (Homo sapiens, UniProt P24387+Q13324); experiment: activators of CRF receptor 2 with binding protein – uHTS hits, confirmation (AID 602473); type: functional; conditions: read-out: EC50_Mean
T1 sequence (Q13324 whole entry): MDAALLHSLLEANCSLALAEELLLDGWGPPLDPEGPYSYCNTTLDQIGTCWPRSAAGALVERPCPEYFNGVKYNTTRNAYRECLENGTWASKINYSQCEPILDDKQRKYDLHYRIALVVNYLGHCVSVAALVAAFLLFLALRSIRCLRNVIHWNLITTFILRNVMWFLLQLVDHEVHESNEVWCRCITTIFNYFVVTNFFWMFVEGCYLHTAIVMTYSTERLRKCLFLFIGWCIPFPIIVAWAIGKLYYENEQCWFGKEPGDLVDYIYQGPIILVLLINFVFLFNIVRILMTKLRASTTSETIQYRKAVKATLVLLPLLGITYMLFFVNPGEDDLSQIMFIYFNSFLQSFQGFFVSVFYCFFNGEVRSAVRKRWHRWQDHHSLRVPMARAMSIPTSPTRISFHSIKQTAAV
T1 sequence (P24387 whole entry): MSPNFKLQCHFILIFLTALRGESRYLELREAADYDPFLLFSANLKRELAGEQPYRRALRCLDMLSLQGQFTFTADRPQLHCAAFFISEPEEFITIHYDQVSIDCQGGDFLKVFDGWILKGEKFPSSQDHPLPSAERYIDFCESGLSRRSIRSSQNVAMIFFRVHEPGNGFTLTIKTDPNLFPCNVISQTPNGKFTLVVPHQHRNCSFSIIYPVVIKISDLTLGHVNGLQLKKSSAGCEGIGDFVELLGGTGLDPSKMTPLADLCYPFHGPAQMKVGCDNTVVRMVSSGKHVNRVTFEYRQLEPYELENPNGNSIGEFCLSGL

[9] = Luminescence Cell-Based Dose Response HTS to Identify Inhibitors of 5'UTR Stem-Loop Driven Prion Protein mRNA Translation in H4 Neuroglioblastoma Cells. [Related pubchem assays: 1827 (Project Summary), 1813 (Primary HTS)]; type: functional
[10] = inhibitors of SNCA 5'UTR-driven reporter translation, confirmation, H4 neuroglioma cells, luminescence (AID 1988); type: functional, cell-based
[11] = test system: INS1; experiment: beta cell apoptosis inhibitors, cytokine rescue, dose response, luminescence, retest (AID 449756); type: functional, cell-based; conditions: Rattus norvegicus;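 further: cell death triggered by IL-1 beta plus TNF-alpha plus IFN-gamma mixture; protective hits raise ATP signal compared with cytokine alone wells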
[12] = inhibitors of firefly luciferase expression or activity, dose response, H4 neuroglioma cells, luminescence (AID 1990); type: functional, cell-based
[13] = biological target: Cytochrome P450 2C19 (Homo sapiens, UniProt P33261); experiment: Cytochrome panel assay with activity outcomes. Panel member name: p450-cyp2c19 Compounds with AC50 equal or less than 10 uM are considered active; type: functional; conditions: read-out: AC50
[14] = growth suppression of PTEN-null colon cells, dose response, cell-based, HCT116 PTEN knockout (AID 1047); type: functional;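 further: HCT116 colon tumor cells with PTEN knocked out; cells exposed to compound for 60 hours before readout; potency for loss of cell viability measured by luminescence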
[15] = biological target: T2, Streptokinase A (Streptococcus pyogenes serotype M1, UniProt P10520); experiment: S. pyogenes streptokinase expression inhibitors, potency, dose response, plasminogen activation absorbance, OD405 (AID 1914); type: functional, Streptococcus pyogenes M1 GAS;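 further: secreted streptokinase activity via plasminogen activation per viability signal from cell pellet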
T2 sequence (P10520 whole entry): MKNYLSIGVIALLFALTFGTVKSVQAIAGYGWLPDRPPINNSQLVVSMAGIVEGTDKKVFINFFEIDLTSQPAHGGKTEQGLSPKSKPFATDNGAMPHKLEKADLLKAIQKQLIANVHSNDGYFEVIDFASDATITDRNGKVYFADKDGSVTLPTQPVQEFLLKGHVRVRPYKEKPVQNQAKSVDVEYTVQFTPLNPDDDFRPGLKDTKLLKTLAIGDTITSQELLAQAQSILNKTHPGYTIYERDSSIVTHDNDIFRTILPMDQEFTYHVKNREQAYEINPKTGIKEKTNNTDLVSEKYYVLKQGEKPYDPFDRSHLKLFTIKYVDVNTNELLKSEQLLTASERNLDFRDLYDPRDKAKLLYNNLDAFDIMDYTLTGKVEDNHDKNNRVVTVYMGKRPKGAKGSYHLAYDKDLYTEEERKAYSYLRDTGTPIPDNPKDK

[16] = growth suppression of beta-catenin-knockout colon cells, dose response, cell-based, HCT116, human colon tumor (AID 1045); type: functional;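 further: HCT116 colon tumor cells with beta catenin knocked out; cells exposed to compound for 60 hours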

Chain of Cytochrome P450 2D6 (P10635 whole entry): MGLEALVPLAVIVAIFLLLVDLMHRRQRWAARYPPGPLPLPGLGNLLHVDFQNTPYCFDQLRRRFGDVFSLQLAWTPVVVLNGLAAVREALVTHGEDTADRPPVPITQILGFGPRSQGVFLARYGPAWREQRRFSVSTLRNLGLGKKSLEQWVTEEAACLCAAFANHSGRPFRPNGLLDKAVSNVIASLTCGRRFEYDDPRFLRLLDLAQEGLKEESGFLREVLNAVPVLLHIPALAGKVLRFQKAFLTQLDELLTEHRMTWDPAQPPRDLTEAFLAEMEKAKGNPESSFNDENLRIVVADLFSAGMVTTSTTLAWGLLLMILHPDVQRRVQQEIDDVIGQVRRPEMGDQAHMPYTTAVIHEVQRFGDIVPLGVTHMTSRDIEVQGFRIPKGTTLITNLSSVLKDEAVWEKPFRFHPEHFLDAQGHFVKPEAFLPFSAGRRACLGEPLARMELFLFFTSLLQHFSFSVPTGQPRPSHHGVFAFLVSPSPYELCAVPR
Chain of Cytochrome P450 2C19 (P33261 whole entry): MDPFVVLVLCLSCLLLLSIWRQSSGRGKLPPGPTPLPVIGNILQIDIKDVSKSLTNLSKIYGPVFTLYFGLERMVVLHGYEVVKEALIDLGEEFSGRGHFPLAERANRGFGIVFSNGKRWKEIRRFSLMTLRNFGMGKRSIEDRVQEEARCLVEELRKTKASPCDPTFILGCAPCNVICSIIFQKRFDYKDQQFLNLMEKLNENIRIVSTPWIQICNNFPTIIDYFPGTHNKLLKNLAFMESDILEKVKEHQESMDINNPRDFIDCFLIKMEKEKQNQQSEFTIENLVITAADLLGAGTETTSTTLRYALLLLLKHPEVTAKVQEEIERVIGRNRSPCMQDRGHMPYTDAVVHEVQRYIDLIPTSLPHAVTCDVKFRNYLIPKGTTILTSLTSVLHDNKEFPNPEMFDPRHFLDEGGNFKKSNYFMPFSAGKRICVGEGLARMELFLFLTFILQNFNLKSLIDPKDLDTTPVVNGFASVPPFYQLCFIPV

With `NNc1nc2ccc(Cl)cc2s1` the CC50 [1] was > 40 µM (active).
In the case of `O=C(Nc1nnc(C2=COCCO2)o1)c1ccc(Cc2ccccc2)cc1`, the CC50 [1] is reported as > 40 µM (active), the IC50 [2] is reported as 10.2 µM (active) and the EC50 [3] is reported as 3.96 µM (active). The EC50 [4] was 2.54 µM (active).
With `Cc1ccc(C(=O)CSc2cc(C)nc(O)n2)cc1` the EC50 [5] was > 350 µM (not active) and the EC50 [6] was > 350 µM (not active).
With `COC(=O)[C@@]1(Cc2ccccc2)[C@H]2c3cc(C(=O)N(C)C)n(Cc4cc(F)c(F)c(F)c4)c3C[C@H]2CN1C(=O)c1ccccc1` the AC50 [7] was 25.1 µM (inconclusive).
With `CCOC(=O)c1[nH]c(CN2CCN(c3ccc(OC)cc3)CC2)c(C(=O)OCC)c1C` the CC50 [1] was > 40 µM (active).
For `CCCCCCc1cc2cc(C(=O)Nc3cccc(OC)c3)c(=O)oc2cc1O`, the EC50 [8] was > 53 µM (inactive), the EC50 [9] was 65.8 µM (active) and the EC50 [10] was 16.6 µM (active). The AC50 [11] was 4.06 µM (active) and the EC50 [12] was > 120 µM (not active).
For `Oc1ccc(Cl)cc1CNCC1CCCO1` (stereo not drawn), the EC50 [5] was > 350 µM (not active) and the EC50 [6] was > 350 µM (not active).
In the case of `CC1(C)CC(=O)C(CC2C(=O)CC(C)(C)CC2=O)C(=O)C1`, the EC50 [5] is reported as > 350 µM (not active) and the EC50 [6] is reported as 98.1 µM (active).
For `c1ccc(-c2ccc(N3CC[C@@]4(CCCNC4)C3)cc2)cc1`, the AC50 [7] was 39.8 µM (inconclusive) and the AC50 [13] was 20 µM (inconclusive).
With `CC(C)CN1C(=S)SC(C)(C)C1n1oc(=O)n(-c2ccc(Cl)cc2)c1=O` (stereo not drawn) the EC50 [3] was 18.8 µM (active), the EC50 [14] was 21.9 µM (active) and the EC50 [15] was 5.59 µM (active). The EC50 [16] was 20.7 µM (active) and the EC50 [4] was 4.36 µM (active).
With `CC(C(=O)N1CCOCC1)N1c2cccc3cccc(c23)S1(=O)=O` (stereo not drawn) the EC50 [5] was > 350 µM (not active) and the EC50 [6] was > 350 µM (not active).
For `N=C(NOC(=O)C(c1ccccc1)c1ccccc1)c1cccnc1`, the EC50 [5] was > 350 µM (not active) and the EC50 [6] was > 350 µM (not active).
With `Cc1oc(-c2ccc(Cl)cc2)nc1C[S+]([O-])CC(=O)NCCN1CCCCCC1` (stereo not drawn) the EC50 [5] was > 350 µM (not active) and the EC50 [6] was > 350 µM (not active).
In the case of `COC(=O)CNC(=O)COC(=O)C(Cc1ccccc1)NC(=O)c1ccco1` (stereo not drawn), the EC50 [8] is reported as > 53 µM (inactive).
For `COc1ccccc1NC(=S)NC(=O)Cc1ccc(Cl)cc1`, the EC50 [8] was 9.41 µM (active).
For `O=C(NC(=S)N1CCc2ccccc21)c1ccc(Br)o1`, the CC50 [1] was 39.7 µM (active).
In the case of `COc1ccc2nc(NC(=O)CSc3nccc(C)n3)sc2c1`, the EC50 [5] is reported as > 350 µM (not active) and the EC50 [6] is reported as > 350 µM (not active).
In the case of `CCCCCN(C(=O)CCC(=O)OCC(=O)c1ccc(C(C)CC)cc1)c1c(N)n(CCCC)c(=O)[nH]c1=O` (stereo not drawn), the EC50 [5] is reported as > 350 µM (not active) and the EC50 [6] is reported as > 350 µM (not active).

Source: ChEMBL document CHEMBL1201862, “PubChem BioAssay data set” (2004)
